4 compounds from ChEMBL document CHEMBL5120885, “Neopetrosins A-D and Haliclorensin D, Indole-C-Mannopyranosides and a Diamine Alkaloid Isolated from the South China Sea Marine Sponge Neopetrosia chaliniformis” (J Nat Prod, 2022) can be followed below.

The structures appear in SMILES notation. Activity calls are given as the source filed them. No cut-off for these calls is given here.

What all share (type): functional, organism-based
Test [1] is filed under the species Danio rerio. Briefly: Hepatoprotective activity in isoniazid induced liver injury in transgenic zebrafish T3 (L- FABP:EGFP) model assessed as change in liver size at 20 uM incubated for 72 hrs by fluorescence microscopic analysis.
The species entered for test [2] is Danio rerio. Briefly: Hepatoprotective activity in ethanol induced liver injury in transgenic zebrafish T3 (L- FABP:EGFP) model assessed as change in liver size at 20 uM incubated for 72 hrs by fluorescence microscopic analysis.
The species named for test [3] is Danio rerio. Briefly: Hepatoprotective activity in isoniazid induced liver injury in transgenic zebrafish T3 (L- FABP:EGFP) model assessed as change in liver size at 50 uM incubated for 72 hrs by fluorescence microscopic analysis.
The species entered for test [4] is Danio rerio. Briefly: Hepatoprotective activity in ethanol induced liver injury in transgenic zebrafish T3 (L- FABP:EGFP) model assessed as change in liver size at 50 uM incubated for 72 hrs by fluorescence microscopic analysis.

`C[C@@H]1NC(=O)[C@H](Cc2c([C@H]3O[C@H](CO)[C@@H](O)[C@H](O)[C@@H]3O)[nH]c3ccccc23)NC1=O`: the result in the test listed under Danio rerio [1] and in the test listed under Danio rerio [2] was Active.
For `NCC(=O)c1c([C@H]2O[C@H](CO)[C@@H](O)[C@H](O)[C@@H]2O)[nH]c2ccccc12`, the result in the test listed under Danio rerio [1] and in the test filed under Danio rerio [2] was Active.
Consider `O=C1O[C@H]2[C@@H](O)[C@H](O)[C@@H](CO)O[C@@H]2c2[nH]c3ccccc3c21`, for which the result in the test listed under Danio rerio [1] and in the test listed under Danio rerio [2] was Active.
Consider `C[S+](CC[C@H](N)C(=O)[O-])C[C@H]1O[C@@H](n2cnc3c(N)ncnc32)[C@H](O)[C@@H]1O` (stereo partly drawn), for which the outcome in the test filed under Danio rerio [3] and in the test listed under Danio rerio [4] was Active.
